Counter-ions that a name gives are not always drawn.
How the values were obtained:
[1] = system: CD34+ brown adipocyte progenitor cells; test: Multiplexed TaqMan real-time PCR of UCP1 and PPARγ2 mRNA (normalized to cyclophilin A) to quantify differentiation of CD34+ cells into brown adipocytes; type: cell-based, human; conditions: in vitro; first screen at 10 μM, actives retested at 1 nM to 50 μM
Text: A robust method, previously disclosed, was used for detection of CD34+ cell differentiation into brown adipocytes by simultaneously quantifying mRNA species corresponding to the brown adipocyte marker UCP1, the adipocyte marker PPARγ2, and the “housekeeping” gene cyclophilin A which was used as the internal control.
This method permits analysis of a large number of samples to identify agents that enhance the differentiation of CD34+ cells into brown adipocytes. When differentiated into brown adipocytes, CD34+ cells express much higher levels of UCP1 and PPARγ2 mRNA for a given level of cyclophilin A. UCP1 and PPARγ2 mRNA levels normalized to cyclophilin A mRNA levels give an indication of the level of differentiation of the CD34+ cells into brown adipocytes, independent of the total number of cells in the sample.
Quantification of UCP1, PPARγ2 and cyclophilin A mRNA by multiplexed TaqMan real-time PCR was thus used to quantify differentiation of the CD34+ cells into brown adipocytes.
UCP1 is the key protein in brown adipocytes responsible for uncoupled respiration and is also highly specific for brown adipocyte differentiation. It is expressed exclusively by fully differentiated brown adipocytes and not by the CD34+ progenitor cells. We used a real-time semi-quantitative RT PCR-based assay for detection of UCP1 expression, in order to screen for brown adipocyte recruiters. […] The assay has the added advantage of allowing light microscopic visualization of the distinct morphological changes accompanying differentiation into brown adipocytes. This serves as further confirmation of differentiation.
(§1) Cells were seeded at 10,000 per cm^2 (48-well tissue culture, Chemglass #CLS-3500-048), cultured until confluency (1-4 days) at 37° C. in Endothelial cell growth medium-2 (EGM2) (BulletKit growth medium, Lonza #CC-3162) and until differentiation (6-12 more days). After 1-4 days in EGM2 media the cells were incubated with test agents (or positive controls) for 2-3 days (from day −3 or −2 to day 0). Rosiglitazone (1 μM) and rhBMP7 (6.3 nM) were used as reference agents (positive controls). Then (on day 0) the culture media (containing the test agents or positive controls) was removed, and minimal adipogenic medium (MDM) was added and the cells were left to differentiate of 6-12 days. The MDM media is a modification of the adipogenic media described by Rodriguez et al., and contains: DMEM/Ham's F-12 50/50 Mix (3.151 g/1, 17.5 mM D-glucose, 3.651 g/l L-glutamine) (Cellgro #10-090-CV), 5 μg/ml (0.86 μM) insulin, 1 μM dexamethasone, 100 μM 3-isobutyl-1-methylxanthine, 0.2 nM 3,3′,5-triiodo-L-thyronine, 10 μg/ml (127 nM) transferrin, and 1% penicillin-streptomycin. Adipocyte scores were determined by light microscopy and defined as the number of cells, on a per well basis, that contain multilocular lipid droplets, at the end of the differentiation of the cells, approximately 6 to 12 days following the end of compound treatment and switch into MDM media.
Total RNA was prepared from cells using PureLink RNA Isolation Kit (Invitrogen #12183-016). Alternatively, cells were simply lyzed by freezing (−80° C.). First strand cDNA were synthesized using the High Capacity cDNA Reverse Transcription kit (Applied Biosystems, Foster City, Calif.) and random primers.
Quantitative real-time PCR was performed using an Applied Biosystems StepOnePlus™ instrument, TaqMan Gene Expression Master Mix (Applied Biosystems #4369016), and custom TaqMan gene expression probes and primers for human uncoupling protein-1 “UCP1” (GenBank NM_021833) and for human peptidylprolyl isomerase A “cyclophilin A” (GenBank NM_021130).
Cyclophilin A was used as a control to account for any variations due to the efficiency of reverse transcription. Arbitrary units were determined by normalizing target mRNA levels to cyclophilin A mRNA levels (based on Cts).

CD34+ cells [2] = test: Quantification of UCP1 protein by fluorescence immunohistochemistry (IHC); type: cell-based, human
Method: Culturing and differentiation of CD34+ cells into brown adipocytes were performed using adipogenic differentiation medium lacking (Minimal Differentiation Medium, MDM) or containing 1 μM rosiglitazone (Reference Differentiation Medium, RDM). After 15 days of differentiation cells were fixed with 4% Paraformaldehyde PBS pH 7.4, and incubated with a UCP1 antibody (Abcam ab23841) and Alexafluor 488 goat anti-rabbit antibody to quantify relative UCP1 levels (green) according to standard protocols. Prior to fixation of cells, nuclei were labeled with 5 μM DAPI (blue) for 10 minutes. Each treatment condition was evaluated in triplicate in a 96-well plate corresponding to approximately 360-480 cells for each data point in total. The InCell 1000 Developer Toolbox software was used to develop an automated cell detection script to measure UCP1 signal intensity, using the nuclei and cytoplasm detection algorithms. As a readout, total intensity of UCP1 signal within the cell was used, normalized to cell number.

CD34+ cells [3] = test: Light microscopy of CD34+ cells for brown adipocyte differentiation (multilocular lipid-containing cells); type: cell-based, human; conditions: CD34+ cells 6 days following the end of compound treatment and switch into MDM media
Method: as §1
Pictures of cells were taken using a hand-held digital camera (Nikon Coolpix 950) and inverted microscope (Nikon TMS) used for cell culture observations; images were optimized using Paint.net version 4.0 functions for Auto-Level Brightness and Contrast.

DIO mice = test: DIO mouse study of metabolic health, once-daily oral gavage for 28 to 56 days; type: in vivo, C57Bl/6 mice; conditions: oral gavage once a day, bezafibrate 60 mg/kg, oxaprozin 50 mg/kg, vs vehicle
Method: Obesity and insulin resistance, an early stage in the development of type 2 diabetes (or pre-diabetes), was induced in C57Bl/6 mice by feeding the mice with a high fat diet (Research diet, Cat #D12492, 60/a fat kcal) for 12 weeks starting at 6 weeks of age. The mice were maintained at 22-23° C. with abundant bedding material, maintaining the animals in an environmental temperature close to their thermoneutrality, starting 2 weeks prior to the dosing period and for the full dosing period with a 12 h/12 h light/dark cycle.
Mice were dosed once per day by oral gavage (200 μl per mouse), first for 3 days with the vehicle (PBS+0.5% CMC+0.1% Tween-80) as acclimation for running into the study, then with either vehicle alone or testing material dissolved in the vehicle for […] (4 to 8 weeks).
Body weight was recorded every 3 days, body composition (fat and lean mass with EchoMRI) was assessed at the end of the study (University of Cincinnati Mouse Metabolic Phenotyping Center), blood glucose level (measured with a glucometer) was monitored 3-5 days before (baseline) and at the end of the dosing period.
At the end of the dosing period, animals were fasted for 6 hours and euthanized by CO2, blood was collected, and plasma was isolated and saved at −20° C. Plasma glucose, insulin and leptin levels were assessed 3-5 days before (baseline) and at the end of the dosing period (mice were fasted for 6 hours before all plasma collection) (University of Cincinnati Mouse Metabolic Phenotyping Center). Insulin sensitivity was determined using the homeostasis model assessment of insulin resistance (HOMA-IR). HOMA-IR=(plasma insulin [microIU/ml] x plasma glucose [mM])/22.5.
The mice were maintained on a high fat diet (60% calories from fat) throughout the study. An overnight fast was performed the last night of the study in preparation for glucose tolerance testing.

COc1ccc2c(c1)c(CC(=O)OCC(=O)O)c(C)n2C(=O)c1ccc(Cl)cc1 [Acemethacin]
differentiation of brown adipocyte progenitor cells into brown adipocytes, as indicated by expression of UCP1 and PPARγ2 [1]: promote the differentiation of brown adipocyte progenitor cells into brown adipocytes

COc1cc2c(c(OC)c1OC)-c1ccc(OC)c(=O)cc1[C@@H](NC(C)=O)CC2 [Colchicine]
agents identified by quantification of UCP1 protein by fluorescence IHC (CD34+ cells [2]): identified using this technique

O=C(O)Cc1ccccc1Nc1c(Cl)cccc1Cl [Diclofenac]
differentiation of brown adipocyte progenitor cells into brown adipocytes, as indicated by expression of UCP1 and PPARγ2 [1]: promote the differentiation of brown adipocyte progenitor cells into brown adipocytes

NC(N)=Nc1nc(CSCCC(N)=NS(N)(=O)=O)cs1 [Famotidine]
agents identified by quantification of UCP1 protein by fluorescence IHC (CD34+ cells [2]): identified using this technique

CCC1=C(C)CN(C(=O)NCCc2ccc(S(=O)(=O)NC(=O)N[C@H]3CC[C@H](C)CC3)cc2)C1=O [Glimepiride]
differentiation of brown adipocyte progenitor cells into brown adipocytes, as indicated by expression of UCP1 and PPARγ2 [1]: promote the differentiation of brown adipocyte progenitor cells into brown adipocytes

N=C(N)NC(=O)Cc1c(Cl)cccc1Cl [Guanfacine hydrochloride]
agents identified by quantification of UCP1 protein by fluorescence IHC (CD34+ cells [2]): identified using this technique

COc1ccc2c(c1)c(CC(=O)O)c(C)n2C(=O)c1ccc(Cl)cc1 [Indomethacin]
differentiation of brown adipocyte progenitor cells into brown adipocytes, as indicated by expression of UCP1 and PPARγ2 [1]: promote the differentiation of brown adipocyte progenitor cells into brown adipocytes

Cc1ccc(Cl)c(Nc2ccccc2C(=O)O)c1Cl [Meclofenamate]
differentiation of brown adipocyte progenitor cells into brown adipocytes, as indicated by expression of UCP1 and PPARγ2 [1]: promote the differentiation of brown adipocyte progenitor cells into brown adipocytes

Cc1cccc(Nc2ccccc2C(=O)O)c1C [Mefenamic acid]
differentiation of brown adipocyte progenitor cells into brown adipocytes, as indicated by expression of UCP1 and PPARγ2 [1]: promote the differentiation of brown adipocyte progenitor cells into brown adipocytes

CN(C)C(=N)N=C(N)N [Metformin]
agents identified by quantification of UCP1 protein by fluorescence IHC (CD34+ cells [2]): identified using this technique

O=C(O)c1cccnc1Nc1cccc(C(F)(F)F)c1 [Niflumic acid]
differentiation of brown adipocyte progenitor cells into brown adipocytes, as indicated by expression of UCP1 and PPARγ2 [1]: promote the differentiation of brown adipocyte progenitor cells into brown adipocytes

COC(=O)[C@H]1[C@H]2C[C@@H]3c4[nH]c5cc(OC)ccc5c4CCN3C[C@H]2C[C@@H](OC(=O)c2cc(OC)c(OC)c(OC)c2)[C@@H]1OC [Reserpine]
agents identified by quantification of UCP1 protein by fluorescence IHC (CD34+ cells [2]): identified using this technique

O=C(CCCN1CCC2(CC1)C(=O)NCN2c1ccccc1)c1ccc(F)cc1 [Spiperone]
agents identified by quantification of UCP1 protein by fluorescence IHC (CD34+ cells [2]): identified using this technique

CCOC(=O)Oc1c(OC)cc(C(=O)O[C@@H]2C[C@@H]3CN4CCc5c([nH]c6cc(OC)ccc56)[C@H]4C[C@@H]3[C@H](C(=O)OC)[C@H]2OC)cc1OC [Syrosingopine]
agents identified by quantification of UCP1 protein by fluorescence IHC (CD34+ cells [2]): identified using this technique

CCSc1ccc2c(c1)N(CCCN1CCN(C)CC1)c1ccccc1S2 [Thiethylperazine]
agents identified by quantification of UCP1 protein by fluorescence IHC (CD34+ cells [2]): identified using this technique

CCN(CC)CCNC(=O)c1cc(S(C)(=O)=O)ccc1OC [Tiapride hydrochloride]
agents identified by quantification of UCP1 protein by fluorescence IHC (CD34+ cells [2]): identified using this technique

CCCCC[C@H](O)/C=C/[C@H]1[C@H](O)CC(=O)[C@@H]1CCCCCCC(=O)O [alprostadil, Alprostadil]
differentiation of brown adipocyte progenitor cells into brown adipocytes, as indicated by expression of UCP1 and PPARγ2 [1]: promote the differentiation of brown adipocyte progenitor cells into brown adipocytes
brown adipocyte formation by light microscopy (CD34+ cells [3]): promote brown adipocyte formation

COc1ccc2c(c1)C(=O)N(CCc1ccc(S(=O)(=O)NC(=O)NC3CCCCC3)cc1)C(=O)C2(C)C [gliquidone, Gliquidone]
differentiation of brown adipocyte progenitor cells into brown adipocytes, as indicated by expression of UCP1 and PPARγ2 [1]: promote the differentiation of brown adipocyte progenitor cells into brown adipocytes
brown adipocyte formation by light microscopy (CD34+ cells [3]): promote brown adipocyte formation

O=C(O)CCc1nc(-c2ccccc2)c(-c2ccccc2)o1 [oxaprozin, 3-(4,5-Diphenyloxazol-2-yl)propionic acid]
differentiation of brown adipocyte progenitor cells into brown adipocytes, as indicated by expression of UCP1 and PPARγ2 [1]: promote the differentiation of brown adipocyte progenitor cells into brown adipocytes
body fat mass (DIO mice; MRI): significant decreases
body weight (DIO mice): significant decreases
glycemia (DIO mice): significant decreases
plasma insulin (DIO mice): significant decreases
plasma leptin (DIO mice): significant decreases

O=C(O)/C=C/c1ccc(Cn2ccnc2)cc1 [ozagrel, (2E)−3-{4-[(1H-imidazol-1-yl)methyl]phenyl}prop-2-enoic acid]
differentiation of brown adipocyte progenitor cells into brown adipocytes, as indicated by expression of UCP1 and PPARγ2 [1]: promote the differentiation of brown adipocyte progenitor cells into brown adipocytes
brown adipocyte formation by light microscopy (CD34+ cells [3]): promote brown adipocyte formation

CN1c2ccccc2C(NCCCCCCC(=O)O)c2ccc(Cl)cc2S1(=O)=O (centres unmarked) [tianeptine, Tianeptine]
differentiation of brown adipocyte progenitor cells into brown adipocytes, as indicated by expression of UCP1 and PPARγ2 [1]: promote the differentiation of brown adipocyte progenitor cells into brown adipocytes
brown adipocyte formation by light microscopy (CD34+ cells [3]): promote brown adipocyte formation

CC(C(=O)O)c1ccc2c(c1)CC(=O)c1ccccc1S2 (centres unmarked) [zaltoprofen, 2-(6-Oxo-5H-benzo[b][1]benzothiepin-3-yl)propanoic acid]
differentiation of brown adipocyte progenitor cells into brown adipocytes, as indicated by expression of UCP1 and PPARγ2 [1]: promote the differentiation of brown adipocyte progenitor cells into brown adipocytes
brown adipocyte formation by light microscopy (CD34+ cells [3]): promote brown adipocyte formation
